Laboratory results published in BindingDB's records for doi:10.1021/cc0501561 (East China Univesity of Science and Technology, 2006).
pIC50, pKd: −log10 of the molar value.

The molecules below were run against Peptidyl-prolyl cis-trans isomerase A (Homo sapiens, UniProt P62937) (assay: Surface Plasmon Resonance Assay). Conditions: pH 7.4; 25 °C.
Procedure: CypA in vitro were determined by employing surface plasmon resonance (SPR) technology.

Chain of Peptidyl-prolyl cis-trans isomerase A (P62937 whole entry): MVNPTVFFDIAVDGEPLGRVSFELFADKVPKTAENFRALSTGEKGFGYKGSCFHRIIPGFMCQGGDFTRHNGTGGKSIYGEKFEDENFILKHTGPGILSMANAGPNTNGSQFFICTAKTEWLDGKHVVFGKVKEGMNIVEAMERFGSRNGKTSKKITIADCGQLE

Row | SMILES | pIC50 | pKd
1 | CC(C)(C)NC(=O)[C@@H]1Cc2ccccc2CN1Cc1cc(-c2ccc3ccccc3c2)nc2ccccc12 [CypA Inhibitor, 1b] |  | 5.51
2 | COC(=O)c1cc(C(=O)Nc2cc(-c3cccc(Cl)c3)nc3ccccc23)ccc1NCc1ccccc1 [CypA Inhibitor, 3a] |  | 5.09
3 | CCN(CC)C(=O)CNCc1cc(-c2ccc3ccccc3c2)nc2ccccc12 [CypA Inhibitor, 1e] |  | 5.47
4 | COC(=O)c1cc(NC(=O)c2ccc3nc(-c4ccco4)c(-c4ccco4)nc3c2)ccc1NCc1ccccc1 [CypA Inhibitor, 4a] | 6.60 | 5.09
5 | CCOC(=O)[C@H]1CCCN(C(=O)Nc2cc(-c3cccc(Cl)c3)nc3ccccc23)C1 [CypA Inhibitor, 2b] |  | 4.54
6 | CC(C)CCOC(=O)Nc1cc(-c2ccc3ccccc3c2)nc2ccccc12 [CypA Inhibitor, 2a] |  | 7.12
7 | CC(C)(C)NC(=O)[C@@H]1Cc2ccccc2CN1Cc1cc(-c2cccc(Cl)c2)nc2ccccc12 [CypA Inhibitor, 1a] |  | 4.61
8 | COC(=O)c1cc(C(=O)Nc2ccc(S(=O)(=O)Nc3onc(C)c3C)cc2)ccc1NCc1ccccc1 [CypA Inhibitor, 3b] |  | 4.97
9 | Cc1noc(NS(=O)(=O)c2ccc(NC(=O)c3ccc4nc(-c5ccco5)c(-c5ccco5)nc4c3)cc2)c1C [CypA Inhibitor, 4b] |  | 4.56
10 | CCOC(=O)[C@@H]1CCCN(Cc2cc(-c3ccc4ccccc4c3)nc3ccccc23)C1 [CypA Inhibitor, 1d] |  | 4.76
11 | c1ccc2cc(-c3cc(CN4CCCCC4)c4ccccc4n3)ccc2c1 [CypA Inhibitor, 1c] |  | 6.67

Second part, the molecule after the results:

Row | pIC50 | pKd | SMILES
12 | 6.02 | 4.64 | O=C(Nc1ccc(S(=O)(=O)Nc2ncccn2)cc1)c1ccc2nc(-c3ccco3)c(-c3ccco3)nc2c1 [CypA Inhibitor, 4f]
13 | 6.11 | 4.45 | O=C(Nc1ccc(S(=O)(=O)Nc2cnc3ccccc3n2)cc1)c1ccc2nc(-c3ccco3)c(-c3ccco3)nc2c1 [CypA Inhibitor, 4g]
14 | 5.19 | 4.39 | Cc1ccnc(NS(=O)(=O)c2ccc(NC(=O)c3ccc4nc(-c5ccco5)c(-c5ccco5)nc4c3)cc2)n1 [CypA Inhibitor, 4c]
15 | 5.54 | 4.41 | Cc1cc(NS(=O)(=O)c2ccc(NC(=O)c3ccc4nc(-c5ccco5)c(-c5ccco5)nc4c3)cc2)no1 [CypA Inhibitor, 4e]
16 |  | 4.51 | Cc1cc(C)nc(NS(=O)(=O)c2ccc(NC(=O)c3ccc4nc(-c5ccco5)c(-c5ccco5)nc4c3)cc2)n1 [CypA Inhibitor, 4d]
